Results from patent publication US10059717B2, “Urea compounds containing 3,4-dihydropyrimido[4,5-D]pyrimidin-2(1H)-one skeleton as protein kinase inhibitors” (KOREA INSTITUTE OF SCIENCE AND TECHNOLOGY, priority 2016, dated 2018).

Assays:
Experiment in all cases: Kinase panel biochemical assay
Conditions in all cases: 1 μM single concentration, read-out: % residual enzyme activity
[1] = biological target: EPHA4 (Homo sapiens, UniProt P54764)
Method: (§1) In order to measure the protein kinase inhibitory activity (% inhibition) of the compounds of the present invention, biochemical assays were performed on the full kinase panel listed in the following Table 1.
(§2) As an test compound, 1-(3-(7-((6-(4-ethylpiperazine-1-carbonyl)pyridin-3-yl)amino)-1-methyl-2-oxo-1,4-dihydropyrimido[4,5-d]pyrimidin-3(2H)-yl)-4-methylphenyl)-3-(2-methoxyphenyl)urea (Compound No. 14) was used. The kinase inhibitory efficacy was measured upon treatment with a 1 μM single concentration of the test compound to calculate % residual enzyme activity value.
(§3) ABL1, FGFR2, TAOK2/TAO1, EPHA5, EPHB2, EPHB3, RET, LYN B, EPHA2, FRK/PTK5, EPHA8, LCK, EPHB4, FYN, KHS/MAP4K5, DDR1, EPHA3, P38a/MAPK14, EPHA4, FMS, EPHB1, HCK, FGFR1, ABL2/ARG, EPHA6, c-Src, ACK1, FLT4NEGFR3, ERBB4/HER4, DDR2, KDRNEGFR2, LYN, ZAK/MLTK, YES/YES1, BLK, FGR, MLCK2/MYLK2, TAOK1, BMX/ETK, BTK, EPHA1, JAK1, P38b/MAPK11, TIE2/TEK, FLT1NEGFR1, TXK, SRMS, RAF1, SIK1, MLK3/MAP3K11, PEAK1, TRKA, EPHA7, GLK/MAP4K3, MLK2/MAP3K10, TEC, CSK, TRKC, FES/FPS, SIK2, FGFR3, BRK, YSK4/MAP3K19, ARAF, PDGFRb, TNK1, GCK/MAP4K2, PDGFRa, TNIK, TAK1, ERBB2/HER2, LIMK1, HIPK4, FER, EGFR, JAK2, HPK1/MAP4K1, TRKB, RIPK3, LOK/STK10, LIMK2, MLK1/MAP3K9, BRAF, MEKK3, MEK5, STK32B/YANK2, FGFR4, MEKK2, SLK/STK2, FLT3, PKAcg, TAOK3/JIK, TYRO3/SKY, SIK3, IR, LRRK2, PYK2, NEK11, p70S6K/RPS6KB1, LATS2.

[2] = biological target: c-Src (Homo sapiens, UniProt P12931)
Method: as §1, §2, §3

[3] = biological target: FLT4NEGFR3 (Homo sapiens, UniProt P35916)
Method: as §1, §2, §3

[4] = biological target: MEKK3 (Homo sapiens, UniProt Q99759)
Method: as §1, §2, §3

[5] = biological target: EPHB1 (Homo sapiens, UniProt P54762)
Method: as §1, §2, §3

[6] = biological target: LYN (Homo sapiens, UniProt P07948)
Method: as §1, §2, §3

[7] = biological target: p70S6K/RPS6KB1 (Homo sapiens, UniProt P23443)
Method: as §1, §2, §3

[8] = biological target: TXK (Homo sapiens, UniProt P42681)
Method: as §1, §2, §3

[9] = biological target: FLT3 (Homo sapiens, UniProt P36888)
Method: as §1, §2, §3

[10] = biological target: BLK (Homo sapiens, UniProt P51451)
BLK, sequence (P51451 whole entry): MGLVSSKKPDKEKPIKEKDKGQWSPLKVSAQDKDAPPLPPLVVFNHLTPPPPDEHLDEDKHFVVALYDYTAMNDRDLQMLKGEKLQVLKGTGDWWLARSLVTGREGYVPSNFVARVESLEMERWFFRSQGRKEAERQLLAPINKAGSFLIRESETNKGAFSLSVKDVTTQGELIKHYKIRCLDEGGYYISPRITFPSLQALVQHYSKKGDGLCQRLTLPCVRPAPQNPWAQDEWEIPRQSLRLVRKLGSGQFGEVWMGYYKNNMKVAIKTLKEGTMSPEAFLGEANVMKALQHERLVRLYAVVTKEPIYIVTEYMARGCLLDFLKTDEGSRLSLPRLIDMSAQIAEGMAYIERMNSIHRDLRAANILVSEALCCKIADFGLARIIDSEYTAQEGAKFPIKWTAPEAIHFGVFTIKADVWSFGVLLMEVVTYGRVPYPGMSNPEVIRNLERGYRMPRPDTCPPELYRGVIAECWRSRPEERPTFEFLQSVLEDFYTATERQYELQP
Method: as §1, §2, §3

[11] = biological target: EPHA1 (Homo sapiens, UniProt P21709)
Method: as §1, §2, §3

[12] = biological target: FGFR3 (Homo sapiens, UniProt P22607)
Method: as §1, §2, §3

[13] = biological target: FER (Homo sapiens, UniProt P16591)
Method: as §1, §2, §3

[14] = biological target: BTK (Homo sapiens, UniProt Q06187)
Method: as §1, §2, §3

[15] = biological target: ERBB2/HER2 (Homo sapiens, UniProt P04626)
ERBB2/HER2, sequence (P04626 23-1255): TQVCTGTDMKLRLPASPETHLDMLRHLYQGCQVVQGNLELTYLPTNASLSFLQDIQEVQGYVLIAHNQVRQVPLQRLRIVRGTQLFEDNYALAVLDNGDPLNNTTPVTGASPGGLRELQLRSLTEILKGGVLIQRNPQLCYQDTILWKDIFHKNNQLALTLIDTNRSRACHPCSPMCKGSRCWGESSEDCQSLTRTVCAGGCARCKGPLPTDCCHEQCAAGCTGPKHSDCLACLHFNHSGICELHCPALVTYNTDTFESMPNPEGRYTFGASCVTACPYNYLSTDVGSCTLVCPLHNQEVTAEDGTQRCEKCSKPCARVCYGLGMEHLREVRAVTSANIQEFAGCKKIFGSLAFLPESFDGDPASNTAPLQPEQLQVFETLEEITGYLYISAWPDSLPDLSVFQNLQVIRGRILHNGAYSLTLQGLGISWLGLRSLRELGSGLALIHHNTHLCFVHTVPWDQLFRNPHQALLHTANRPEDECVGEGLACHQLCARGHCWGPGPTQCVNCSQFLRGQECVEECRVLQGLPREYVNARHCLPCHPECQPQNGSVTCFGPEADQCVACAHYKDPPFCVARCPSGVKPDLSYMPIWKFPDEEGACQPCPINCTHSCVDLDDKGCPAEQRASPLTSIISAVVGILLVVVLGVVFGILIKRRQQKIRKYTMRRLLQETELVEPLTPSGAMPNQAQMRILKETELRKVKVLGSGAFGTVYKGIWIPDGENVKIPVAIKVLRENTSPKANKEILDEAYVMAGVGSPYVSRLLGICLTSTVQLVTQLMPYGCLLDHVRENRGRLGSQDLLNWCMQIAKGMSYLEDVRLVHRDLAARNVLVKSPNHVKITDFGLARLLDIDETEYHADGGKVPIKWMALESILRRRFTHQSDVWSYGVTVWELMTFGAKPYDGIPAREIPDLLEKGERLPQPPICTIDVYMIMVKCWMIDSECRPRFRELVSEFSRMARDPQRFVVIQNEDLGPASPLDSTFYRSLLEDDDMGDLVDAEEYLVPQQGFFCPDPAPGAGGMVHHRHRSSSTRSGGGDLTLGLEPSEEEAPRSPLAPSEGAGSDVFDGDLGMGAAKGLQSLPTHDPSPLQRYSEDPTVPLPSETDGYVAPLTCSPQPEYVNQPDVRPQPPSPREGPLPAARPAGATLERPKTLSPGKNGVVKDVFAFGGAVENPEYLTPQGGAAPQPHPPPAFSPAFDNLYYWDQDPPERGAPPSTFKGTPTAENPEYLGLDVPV
Method: as §1, §2, §3

[16] = biological target: SIK2 (Homo sapiens, UniProt Q9H0K1)
Method: as §1, §2, §3

[17] = biological target: SIK1 (Homo sapiens, UniProt P57059)
Method: as §1, §2, §3

[18] = biological target: FGR (Homo sapiens, UniProt P09769)
Method: as §1, §2, §3

[19] = biological target: MEK5 (Homo sapiens, UniProt Q13163)
MEK5, sequence (Q13163 whole entry): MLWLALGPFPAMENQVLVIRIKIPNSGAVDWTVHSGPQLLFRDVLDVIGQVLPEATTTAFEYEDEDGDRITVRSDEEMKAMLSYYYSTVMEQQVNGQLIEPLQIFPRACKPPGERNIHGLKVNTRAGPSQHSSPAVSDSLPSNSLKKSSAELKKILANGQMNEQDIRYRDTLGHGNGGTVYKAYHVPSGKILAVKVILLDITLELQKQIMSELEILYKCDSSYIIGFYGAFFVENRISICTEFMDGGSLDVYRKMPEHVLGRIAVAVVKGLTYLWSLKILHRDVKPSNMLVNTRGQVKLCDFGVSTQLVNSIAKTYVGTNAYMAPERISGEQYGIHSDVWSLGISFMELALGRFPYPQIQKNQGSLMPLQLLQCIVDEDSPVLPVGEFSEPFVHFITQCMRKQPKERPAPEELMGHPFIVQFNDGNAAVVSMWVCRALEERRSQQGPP
Method: as §1, §2, §3

[20] = biological target: PDGFRa (Homo sapiens, UniProt P16234)
Method: as §1, §2, §3

[21] = biological target: ABL1 (Homo sapiens, UniProt P00519)
Method: as §1, §2, §3

[22] = biological target: BMX/ETK (Homo sapiens, UniProt P51813)
Method: as §1, §2, §3

[23] = biological target: FLT1NEGFR1 (Homo sapiens, UniProt P17948)
Method: as §1, §2, §3

[24] = biological target: BRAF (Homo sapiens, UniProt P15056)
BRAF, sequence (P15056 whole entry): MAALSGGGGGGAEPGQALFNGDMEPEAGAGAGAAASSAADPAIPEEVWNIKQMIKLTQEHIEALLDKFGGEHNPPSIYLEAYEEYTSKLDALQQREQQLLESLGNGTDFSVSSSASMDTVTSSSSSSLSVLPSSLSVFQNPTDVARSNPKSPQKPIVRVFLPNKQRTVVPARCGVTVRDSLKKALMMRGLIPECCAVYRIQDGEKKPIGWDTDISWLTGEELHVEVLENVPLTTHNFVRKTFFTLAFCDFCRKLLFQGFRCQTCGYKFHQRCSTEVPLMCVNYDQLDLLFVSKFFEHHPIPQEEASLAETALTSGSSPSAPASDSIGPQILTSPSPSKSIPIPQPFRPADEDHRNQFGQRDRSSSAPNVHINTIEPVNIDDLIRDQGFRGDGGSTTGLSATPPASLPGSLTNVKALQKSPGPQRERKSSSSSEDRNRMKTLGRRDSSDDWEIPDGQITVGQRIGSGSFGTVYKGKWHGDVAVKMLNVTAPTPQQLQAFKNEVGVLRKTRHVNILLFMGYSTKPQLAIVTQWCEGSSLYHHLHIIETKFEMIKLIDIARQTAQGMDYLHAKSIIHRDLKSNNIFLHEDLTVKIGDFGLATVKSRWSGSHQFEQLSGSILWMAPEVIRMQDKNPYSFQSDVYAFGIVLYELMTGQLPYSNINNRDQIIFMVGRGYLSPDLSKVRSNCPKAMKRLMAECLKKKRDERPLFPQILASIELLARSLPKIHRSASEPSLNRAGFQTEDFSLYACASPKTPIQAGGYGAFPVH
Method: as §1, §2, §3

[25] = biological target: SIK3 (Homo sapiens, UniProt Q9Y2K2)
SIK3, sequence (Q9Y2K2 whole entry): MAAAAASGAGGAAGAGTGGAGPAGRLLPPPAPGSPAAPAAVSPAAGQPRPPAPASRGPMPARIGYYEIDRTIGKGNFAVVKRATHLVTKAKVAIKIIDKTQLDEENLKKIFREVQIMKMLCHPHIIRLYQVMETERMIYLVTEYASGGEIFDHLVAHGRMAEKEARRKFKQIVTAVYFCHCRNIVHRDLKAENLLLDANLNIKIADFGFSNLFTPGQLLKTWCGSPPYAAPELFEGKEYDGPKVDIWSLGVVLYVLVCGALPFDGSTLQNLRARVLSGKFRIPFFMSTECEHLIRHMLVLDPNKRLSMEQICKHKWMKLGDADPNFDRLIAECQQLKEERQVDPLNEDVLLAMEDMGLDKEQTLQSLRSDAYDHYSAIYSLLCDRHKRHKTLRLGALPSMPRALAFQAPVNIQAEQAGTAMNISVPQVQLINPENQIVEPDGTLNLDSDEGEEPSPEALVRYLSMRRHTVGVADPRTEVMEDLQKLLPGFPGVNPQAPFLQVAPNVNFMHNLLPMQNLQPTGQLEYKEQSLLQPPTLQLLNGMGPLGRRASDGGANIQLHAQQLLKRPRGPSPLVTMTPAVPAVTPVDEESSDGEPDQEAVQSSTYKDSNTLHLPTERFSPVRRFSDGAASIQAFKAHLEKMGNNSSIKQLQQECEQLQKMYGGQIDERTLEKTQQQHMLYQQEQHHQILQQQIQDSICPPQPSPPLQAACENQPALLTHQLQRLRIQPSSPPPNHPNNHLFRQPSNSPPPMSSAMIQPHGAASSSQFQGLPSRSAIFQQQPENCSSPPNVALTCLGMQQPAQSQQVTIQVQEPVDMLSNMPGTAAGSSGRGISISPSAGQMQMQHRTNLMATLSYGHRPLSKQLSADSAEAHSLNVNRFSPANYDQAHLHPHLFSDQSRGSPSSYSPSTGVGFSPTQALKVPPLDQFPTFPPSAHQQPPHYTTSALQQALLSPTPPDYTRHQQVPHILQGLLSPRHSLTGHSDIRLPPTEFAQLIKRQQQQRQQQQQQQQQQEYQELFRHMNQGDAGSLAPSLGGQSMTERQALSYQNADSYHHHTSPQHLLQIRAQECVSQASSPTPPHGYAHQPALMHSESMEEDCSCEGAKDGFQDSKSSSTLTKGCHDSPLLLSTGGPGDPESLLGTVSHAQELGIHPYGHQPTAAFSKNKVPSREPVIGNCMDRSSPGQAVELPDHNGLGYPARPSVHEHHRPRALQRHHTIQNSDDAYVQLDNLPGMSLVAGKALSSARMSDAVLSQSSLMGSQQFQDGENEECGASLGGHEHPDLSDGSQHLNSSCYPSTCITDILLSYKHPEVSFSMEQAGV
Method: as §1, §2, §3

[26] = biological target: TRKB (Homo sapiens, UniProt Q16620)
TRKB, sequence (Q16620 32-822): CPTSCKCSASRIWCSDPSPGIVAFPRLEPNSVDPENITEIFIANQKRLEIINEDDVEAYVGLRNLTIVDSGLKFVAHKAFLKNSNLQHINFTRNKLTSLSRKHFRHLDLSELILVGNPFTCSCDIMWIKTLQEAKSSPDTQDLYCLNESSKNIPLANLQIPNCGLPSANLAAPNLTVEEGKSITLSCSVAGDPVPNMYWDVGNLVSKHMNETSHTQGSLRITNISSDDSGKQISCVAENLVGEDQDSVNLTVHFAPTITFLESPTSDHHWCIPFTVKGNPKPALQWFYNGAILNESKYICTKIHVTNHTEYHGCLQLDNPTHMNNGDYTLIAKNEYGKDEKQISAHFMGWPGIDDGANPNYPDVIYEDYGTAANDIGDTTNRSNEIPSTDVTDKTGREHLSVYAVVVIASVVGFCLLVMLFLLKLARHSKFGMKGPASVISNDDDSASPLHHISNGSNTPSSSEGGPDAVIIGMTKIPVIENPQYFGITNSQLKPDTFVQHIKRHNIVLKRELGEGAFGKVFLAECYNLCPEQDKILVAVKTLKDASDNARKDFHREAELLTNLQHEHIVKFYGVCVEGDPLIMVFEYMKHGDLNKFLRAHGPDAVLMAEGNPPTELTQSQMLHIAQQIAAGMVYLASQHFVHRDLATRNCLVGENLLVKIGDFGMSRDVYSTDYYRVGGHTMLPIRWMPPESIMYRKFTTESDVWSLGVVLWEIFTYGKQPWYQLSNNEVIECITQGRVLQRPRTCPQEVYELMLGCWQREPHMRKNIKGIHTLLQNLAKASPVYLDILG
Method: as §1, §2, §3

[27] = biological target: EPHA8 (Homo sapiens, UniProt P29322)
Method: as §1, §2, §3

[28] = biological target: FYN (Homo sapiens, UniProt P06241)
Method: as §1, §2, §3

[29] = biological target: TRKC (Homo sapiens, UniProt Q16288)
Method: as §1, §2, §3

[30] = biological target: NEK11 (Homo sapiens, UniProt Q8NG66)
Method: as §1, §2, §3

[31] = biological target: YES/YES1 (Homo sapiens, UniProt P07947)
Method: as §1, §2, §3

remaining activity at 1 µM [1]: ≤ 30% | remaining activity at 1 µM [2]: ≤ 30% | remaining activity at 1 µM [3]: ≤ 30% | remaining activity at 1 µM [4]: ≤ 30% | remaining activity at 1 µM [5]: ≤ 30% | remaining activity at 1 µM [6]: ≤ 30% | remaining activity at 1 µM [7]: ≤ 30% | remaining activity at 1 µM [8]: ≤ 30% | remaining activity at 1 µM [9]: ≤ 30% | remaining activity at 1 µM [10]: ≤ 30% | remaining activity at 1 µM [11]: ≤ 30% | remaining activity at 1 µM [12]: ≤ 30% | remaining activity at 1 µM [13]: ≤ 30% | remaining activity at 1 µM [14]: ≤ 30% | remaining activity at 1 µM [15]: ≤ 30% | remaining activity at 1 µM [16]: ≤ 30% | remaining activity at 1 µM [17]: ≤ 30% | remaining activity at 1 µM [18]: ≤ 30% | remaining activity at 1 µM [19]: ≤ 30% | remaining activity at 1 µM [20]: ≤ 30% | remaining activity at 1 µM [21]: ≤ 30% | remaining activity at 1 µM [22]: ≤ 30% | remaining activity at 1 µM [23]: ≤ 30% | remaining activity at 1 µM [24]: ≤ 30% | remaining activity at 1 µM [25]: ≤ 30% | remaining activity at 1 µM [26]: ≤ 30% | remaining activity at 1 µM [27]: ≤ 30% | remaining activity at 1 µM [28]: ≤ 30% | remaining activity at 1 µM [29]: ≤ 30% | remaining activity at 1 µM [30]: ≤ 30% | remaining activity at 1 µM [31]: ≤ 30%
Structure (SMILES): CCN1CCN(C(=O)c2ccc(Nc3ncc4c(n3)N(C)C(=O)N(c3cc(NC(=O)Nc5ccccc5OC)ccc3C)C4)cn2)CC1 [Compound No. 14, 1-(3-(7-((6-(4-ethylpiperazin-1-carbonyl)pyridin-3-yl)amino)-1-methyl-2-oxo-1,4-dihydropyrimido[4,5-d]pyrimidin-3(2H)-yl)-4-methylphenyl)-3-(2-methoxyphenyl)urea]
